In PubChem BioAssay (NCI):
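Method: 48-hour compound exposure of cells in 96-well plates, five concentrations, linear interpolation of endpoints. TGI is the concentration that stops growth completely.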

How the values were obtained:
Experiment in all cases: NCI anticancer screen, dose series, 48 h
SK-MEL-5 melanoma = system: SK-MEL-5 melanoma
U251 CNS = system: U251 CNS
CAKI-1 renal = system: CAKI-1 renal
ACHN renal = system: ACHN renal
DU-145 prostate = system: DU-145 prostate
HCT-116 colon = system: HCT-116 colon
SN12C renal = system: SN12C renal
OVCAR-3 ovarian = system: OVCAR-3 ovarian
SNB-75 CNS = system: SNB-75 CNS
HCT-15 colon = system: HCT-15 colon
T-47D breast = system: T-47D breast
A549 NSCLC = system: A549 NSCLC
HT29 colon = system: HT29 colon
KM12 colon = system: KM12 colon
LOX IMVI melanoma = system: LOX IMVI melanoma
HOP-92 NSCLC = system: HOP-92 NSCLC
MDA-N = system: MDA-N
HOP-62 NSCLC = system: HOP-62 NSCLC
NCI-H460 lung = system: NCI-H460 lung
MDA-MB-231 breast = system: MDA-MB-231 breast
BT-549 breast = system: BT-549 breast
MCF7 breast = system: MCF7 breast
CCRF-CEM leukemia = system: CCRF-CEM leukemia
SW-620 colon = system: SW-620 colon
RXF 393 renal = system: RXF 393 renal
NCI-H522 lung = system: NCI-H522 lung
UO-31 renal = system: UO-31 renal
COLO 205 colon = system: COLO 205 colon
EKVX NSCLC = system: EKVX NSCLC
SF-295 CNS = system: SF-295 CNS
TK-10 renal = system: TK-10 renal
RPMI-8226 leukemia = system: RPMI-8226 leukemia
NCI-H23 lung = system: NCI-H23 lung
A498 renal = system: A498 renal
SK-MEL-2 melanoma = system: SK-MEL-2 melanoma
UACC-62 melanoma = system: UACC-62 melanoma
OVCAR-5 ovarian = system: OVCAR-5 ovarian
SF-539 CNS = system: SF-539 CNS
M14 melanoma = system: M14 melanoma
K-562 leukemia = system: K-562 leukemia
SK-OV-3 ovarian = system: SK-OV-3 ovarian
UACC-257 melanoma = system: UACC-257 melanoma
786-0 renal = system: 786-0 renal
IGROV1 ovarian = system: IGROV1 ovarian
HL-60(TB) leukemia = system: HL-60(TB) leukemia
SR leukemia = system: SR leukemia
HCC-2998 colon = system: HCC-2998 colon
HS 578T breast = system: HS 578T breast
SF-268 CNS = system: SF-268 CNS
NCI/ADR-RES ovarian = system: NCI/ADR-RES ovarian
SNB-19 CNS = system: SNB-19 CNS
MALME-3M melanoma = system: MALME-3M melanoma
SK-MEL-28 melanoma = system: SK-MEL-28 melanoma
PC-3 prostate = system: PC-3 prostate
OVCAR-8 ovarian = system: OVCAR-8 ovarian
MOLT-4 leukemia = system: MOLT-4 leukemia
MDA-MB-435 = system: MDA-MB-435
NCI-H226 lung = system: NCI-H226 lung
OVCAR-4 ovarian = system: OVCAR-4 ovarian

What does the source list for `NS(=O)(=O)c1ccc(NC(=O)Nc2cccc3ccccc23)cc1`?
TGI (SK-MEL-5 melanoma): > 100 µM; TGI (U251 CNS): 36.2 µM; TGI (CAKI-1 renal): > 100 µM; TGI (ACHN renal): > 100 µM; TGI (DU-145 prostate): 81.3 µM; TGI (HCT-116 colon): > 100 µM; TGI (SN12C renal): > 100 µM; TGI (OVCAR-3 ovarian): > 100 µM; TGI (SNB-75 CNS): 57.7 µM; TGI (HCT-15 colon): > 100 µM; TGI (T-47D breast): > 100 µM; TGI (A549 NSCLC): > 100 µM; TGI (HT29 colon): > 100 µM; TGI (KM12 colon): > 100 µM; TGI (LOX IMVI melanoma): > 100 µM; TGI (HOP-92 NSCLC): > 100 µM; TGI (MDA-N): > 100 µM; TGI (HOP-62 NSCLC): > 100 µM; TGI (NCI-H460 lung): > 100 µM; TGI (MDA-MB-231 breast): 41.1 µM; TGI (BT-549 breast): > 100 µM; TGI (MCF7 breast): > 100 µM; TGI (CCRF-CEM leukemia): > 100 µM; TGI (SW-620 colon): > 100 µM; TGI (RXF 393 renal): > 100 µM; TGI (NCI-H522 lung): 34.9 µM; TGI (UO-31 renal): 31.8 µM; TGI (COLO 205 colon): > 100 µM; TGI (EKVX NSCLC): 80.8 µM; TGI (SF-295 CNS): > 100 µM; TGI (TK-10 renal): > 100 µM; TGI (RPMI-8226 leukemia): > 100 µM; TGI (NCI-H23 lung): > 100 µM; TGI (A498 renal): 52.2 µM; TGI (SK-MEL-2 melanoma): > 100 µM; TGI (UACC-62 melanoma): 69.4 µM; TGI (OVCAR-5 ovarian): > 100 µM; TGI (SF-539 CNS): 50.8 µM; TGI (M14 melanoma): > 100 µM; TGI (K-562 leukemia): > 100 µM; TGI (SK-OV-3 ovarian): > 100 µM; TGI (UACC-257 melanoma): > 100 µM; TGI (786-0 renal): 38 µM; TGI (IGROV1 ovarian): > 100 µM; TGI (HL-60(TB) leukemia): > 100 µM; TGI (SR leukemia): > 100 µM; TGI (HCC-2998 colon): > 100 µM; TGI (HS 578T breast): > 100 µM; TGI (SF-268 CNS): 39.3 µM; TGI (NCI/ADR-RES ovarian): > 100 µM; TGI (SNB-19 CNS): 44.8 µM; TGI (MALME-3M melanoma): > 100 µM; TGI (SK-MEL-28 melanoma): > 100 µM; TGI (PC-3 prostate): 44 µM; TGI (OVCAR-8 ovarian): 40.6 µM; TGI (MOLT-4 leukemia): > 100 µM; TGI (MDA-MB-435): > 100 µM; TGI (NCI-H226 lung): 52.8 µM; TGI (OVCAR-4 ovarian): > 100 µM
